Results published in ChEMBL document CHEMBL1156879, “Ganodermasides A and B, two novel anti-aging ergosterols from spores of a medicinal mushroom Ganoderma lucidum on yeast via UTH1 gene” (Bioorg Med Chem, 2010).
Activity calls are given as the source filed them. No cut-off for these calls is given here.

Assays:
Assay type in all cases: functional, organism-based
Saccharomyces cerevisiae [1] = experiment: Antiaging effect in Saccharomyces cerevisiae K6001 assessed as extension of replicative life span at 10 uM after 2 days
Saccharomyces cerevisiae [2] = experiment: Effect on SOD1 gene expression in Saccharomyces cerevisiae K6001 at 10 uM by RT-PCR
Saccharomyces cerevisiae [3] = experiment: Effect on SOD2 gene expression in Saccharomyces cerevisiae K6001 at 10 uM by RT-PCR
Saccharomyces cerevisiae [4] = experiment: Effect on SIRT1 expression in Saccharomyces cerevisiae K6001 by SIRT1/Sir2 deacetylase fluorometric assay
Saccharomyces cerevisiae [5] = experiment: Antiaging effect in Saccharomyces cerevisiae K6001 expressing uth1 mutant assessed as extension of replicative life span after 2 days
Saccharomyces cerevisiae [6] = experiment: Antiaging effect in Saccharomyces cerevisiae K6001 expressing skn7 mutant assessed as extension of replicative life span after 2 days
Saccharomyces cerevisiae [7] = experiment: Antiaging effect in Saccharomyces cerevisiae K6001 assessed as extension of replicative life span after 2 days

Row | Compound | Activity (Saccharomyces cerevisiae [1]) | Activity (Saccharomyces cerevisiae [2]) | Activity (Saccharomyces cerevisiae [3]) | Activity (Saccharomyces cerevisiae [4]) | Activity (Saccharomyces cerevisiae [5]) | Activity (Saccharomyces cerevisiae [6]) | Activity (Saccharomyces cerevisiae [7])
1 | CC(C)[C@@H](C)/C=C/[C@@H](C)[C@H]1C[C@@H](O)C2=C3C=CC4=CC(=O)CC[C@]4(C)C3CC[C@@]21C (some centres undefined) | Active | inactive | inactive | inactive | inactive | inactive | –
2 | CC(C)[C@@H](C)/C=C/[C@@H](C)[C@H]1C[C@H](O)C2=C3C=CC4=CC(=O)CC[C@]4(C)C3CC[C@@]21C (some centres undefined) | Active | inactive | inactive | inactive | inactive | inactive | –
3 | Oc1ccc(/C=C/c2cc(O)cc(O)c2)cc1 | Active | – | – | – | – | – | Dose-dependent effect
